Assay results published in patent publication US4260630A, “Skin diseases” (priority 1977, dated 1981).

What was measured:
yeast DNA = test: Photobinding to yeast DNA in vivo (radiolabelled drug plus 365 nm light); type: binding, Saccharomyces cerevisiae
Protocol: (§1) The radioactivity of an aliquot (0.1 ml) of this solution was measured in 5 ml of scintillation mixture (Nuclear Entreprise, Ltd., Edinburgh, Scotland, NE 250).
(§2) For the in vivo determinations stationary phase cells of the haploid wild type strain N 123 were prepared as previously described.
(§3) 2 ml cell suspensions were exposed to several doses of 365 nm light. In parallel, non irradiated samples were incubated for the same periods. Immediately after incubation and/or irradiation, the samples were centrifuged and the pellet was washed 3 times with 5 ml of saline (0.9% NaCl). The washed cell pellet was resuspended in 1 ml of saline and 1 ml of 2 N NaOH was added in order to hydrolyze the RNA. The suspension was incubated overnight in the dark at room temperature, then cooled down on ice, and 2 ml of 50% TCA were added slowly. The samples were left 20 minutes on ice and the precipitated DNA was filtered on a glass fiber filter disc (Whatman GF/A, 2.1 cm diameter). In some cases the filtrate containing the acid-soluble material was kept aside, and the radioactivity of an aliquot added to 5 ml of NE250 scintillation mixture measured. The precipitate was washed 3 times with 5 ml of 5% cold TCA and 5 ml of 70% ethanol. The filters were then dried and the radioactivity measured in plastic counting vials containing 5 ml of scintillation mixture (NE 250) in a Tricarb Packard scintillation spectrophotometer.

Saccharomyces cerevisiae = system: Saccharomyces cerevisiae
Protocol: A wild-type strain 211-1aM (29) of Saccharomyces cerivisiae was used, and the following mutants derived from it: S24-12c rad2-20 deficient in excision repair and S25-13b rad9-4 likely to be blocked in a recombinational repair pathway; a double mutant S 2057NL-24 rad2-20 -rad9-4 clone B was obtained by tetrad analysis of a heterozygote [formula]
The media and culture conditions used were as described in D. Averbeck, E. Moustacchi, (1975) Biochim. Biophys. Acta, 395, 393-404.
10^6 cells/ml in saline (0.9% NaCl) were treated for 30 minutes with the drugs at a final concentration of 10 μg/ml and 1.2% ethanol present.
A Philips HPW 125 culot Edison high pressure mercury lamp was used with maximal output at the wavelength 365 nm. The irradiation dose measured by actinometry was 10 J/m^2 per sec., using the following set up: 10 ml of actinometer solution (or the cell suspension, usually 1×10^6 cells/ml), stirred continuously by a magnetic stirrer, were irradiated at room temperature in an open Petri dish of 10 cm diameter at a distance of 10 cm from the center of the light bulb which was mounted horizontally. A 2 mm thick pyrex glass sheet (20×25 cm) was placed in the center of the light beam to cut out UV light of wavelength below 340 nm. Overheating was prevented either by a continuous flow of compressed air between the light bulb and the glass or by a pyrex glass water filter of 3 cm total thickness. An accumulative irradiation dose was given to the same sample. After each dose 0.1 ml of irradiated cell suspension was taken, diluted and aliquots plated.

yeast RNA = test: Photobinding to yeast RNA in vivo (radiolabelled drug plus 365 nm light); type: binding, Saccharomyces cerevisiae; details: for cpm for 10^8 cells: RNA; for Molecules 3-CPs/μg DNA / μg 3-CPs/μg DNA: binding to RNA
Protocol: as §1, §2, §3

[1] = 60 min, 75.6 × 10^4 ergs.mm^-2 365 nm
[2] = 5 min, 6.3 × 10^4 ergs.mm^-2 365 nm
[3] = 10 min, 12.6 × 10^4 ergs.mm^-2 365 nm
[4] = 15 min, 18.9 × 10^4 ergs.mm^-2 365 nm
[5] = 20 min, 25.2 × 10^4 ergs.mm^-2 365 nm
[6] = 30 min, 37.8 × 10^4 ergs.mm^-2 365 nm
[7] = 40 min, 50.4 × 10^4 ergs.mm^-2 365 nm

SMILES: CCOC(=O)c1cc2cc3ccoc3cc2oc1=O [Example 3-CPs, 3-carboethoxypsoralen]
- μg 3-CPs/μg DNA (yeast DNA; [1]): 10 μg 3-CPs/μg DNA × 10^-2
- dark binding with DNA relative to that at lowest dose of irradiation (yeast DNA; dark, 50 minutes): around 10%
- 365 nm light dose up to which binding with DNA increases linearly, then levels off (yeast DNA; in vivo): up to 25.2×10^3 J/m^2
- amount linked to DNA compared with RNA per cell (yeast DNA; in vivo): about the same as that bound to RNA per cell
- amount linked to DNA relative to 8-MOP (yeast DNA; in vivo): about 15 times more
- binding to DNA compared with 8-MOP (yeast DNA; in vivo): binds to DNA much more efficiently than 8-MOP
- difference in photoreactivity with DNA in vivo, 3-CPs vs 8-MOP (yeast DNA; in vivo): 15 factor
- difference in photoreactivity with DNA, 3-CPs vs 8-MOP (yeast DNA; in vivo): ≤ 20 factor
- photoaffinity to DNA compared with RNA (yeast DNA; molecular basis): much higher than to RNA
- difference in survival response, 3-CPs vs 8-MOP (Saccharomyces cerevisiae): 6 factor
- dose-modifying factor for rad9-4 compared to wild type (Saccharomyces cerevisiae): constant
- photobiological activity after previous exposure to light (Saccharomyces cerevisiae): decline in the photobiological activity
- resistance to the killing effect compared with 8-MOP (Saccharomyces cerevisiae): much higher than that expected from the photoreactivity
- shape of survival curve (Saccharomyces cerevisiae): exponential survival curve
- survival level compared with 8-MOP (Saccharomyces cerevisiae): still relatively high as compared to that for 8-MOP
- survivors (Saccharomyces cerevisiae; saline, 5 min): 10^-1
- concentration versus 365 nm light dose, log-log plot at given survival (Saccharomyces cerevisiae; wild type and rad9-4): follows a linear function
- reciprocity between light dose and drug concentration for cell killing (Saccharomyces cerevisiae; wild type and rad9-4): no reciprocity between the light dose and the drug concentration
- photoaffinity for RNA (yeast RNA): relatively low photoaffinity for RNA
- cpm for 10^8 cells (yeast RNA; 5-60 min, no 365 nm light): 1285 cpm for 10^8 cells
- cpm for 10^8 cells (yeast RNA; [2]): 7130 cpm for 10^8 cells
- cpm for 10^8 cells (yeast RNA; [3]): 11040 cpm for 10^8 cells
- cpm for 10^8 cells (yeast RNA; [4]): 14170 cpm for 10^8 cells
- cpm for 10^8 cells (yeast RNA; [5]): 18780 cpm for 10^8 cells
- cpm for 10^8 cells (yeast RNA; [6]): 25380 cpm for 10^8 cells
- cpm for 10^8 cells (yeast RNA; [7]): 29240 cpm for 10^8 cells
- cpm for 10^8 cells (yeast RNA; [1]): 31730 cpm for 10^8 cells
- Molecules 3-CPs/μg DNA (yeast RNA; 5-60 min, no 365 nm light): 0.0023 Molecules 3-CPs/μg DNA × 10^14
- μg 3-CPs/μg DNA (yeast RNA; 5-60 min, no 365 nm light): 0.01 μg 3-CPs/μg DNA × 10^-2
- Molecules 3-CPs/μg DNA (yeast RNA; [2]): 0.0130 Molecules 3-CPs/μg DNA × 10^14
- μg 3-CPs/μg DNA (yeast RNA; [2]): 0.056 μg 3-CPs/μg DNA × 10^-2
- Molecules 3-CPs/μg DNA (yeast RNA; [3]): 0.020 Molecules 3-CPs/μg DNA × 10^14
- μg 3-CPs/μg DNA (yeast RNA; [3]): 0.086 μg 3-CPs/μg DNA × 10^-2
- Molecules 3-CPs/μg DNA (yeast RNA; [4]): 0.026 Molecules 3-CPs/μg DNA × 10^14
- μg 3-CPs/μg DNA (yeast RNA; [4]): 0.11 μg 3-CPs/μg DNA × 10^-2
- Molecules 3-CPs/μg DNA (yeast RNA; [5]): 0.034 Molecules 3-CPs/μg DNA × 10^14
- μg 3-CPs/μg DNA (yeast RNA; [5]): 0.15 μg 3-CPs/μg DNA × 10^-2
- Molecules 3-CPs/μg DNA (yeast RNA; [6]): 0.046 Molecules 3-CPs/μg DNA × 10^14
- μg 3-CPs/μg DNA (yeast RNA; [6]): 0.20 μg 3-CPs/μg DNA × 10^-2
- Molecules 3-CPs/μg DNA (yeast RNA; [7]): 0.053 Molecules 3-CPs/μg DNA × 10^14
- μg 3-CPs/μg DNA (yeast RNA; [7]): 0.23 μg 3-CPs/μg DNA × 10^-2
- Molecules 3-CPs/μg DNA (yeast RNA; [1]): 0.058 Molecules 3-CPs/μg DNA × 10^14
- μg 3-CPs/μg DNA (yeast RNA; [1]): 0.25 μg 3-CPs/μg DNA × 10^-2
- dark binding with RNA relative to that at lowest dose of irradiation (yeast RNA; dark, 50 minutes): 20%
- 365 nm light dose up to which binding with RNA increases linearly, then levels off (yeast RNA; in vivo): up to 25.2×10^3 J/m^2
- difference in photoreactivity with RNA, 3-CPs vs 8-MOP (yeast RNA; in vivo): 3.4 factor
